Test results taken from patent EP2547369B1, “A NA[…] MICELLE FORMED BY AN A[…]-COPOLYMER AND ENCAPSULATING A […]” (King Saud University, priority 2010, dated 2011).

Tests used:
[1] = cited from earlier work
[2] = tested on: MCF-7 breast cancer cell line; assay: MTT assay, cytotoxicity of Gd(III) complex on MCF-7; format: cell-based, human
Source text: (§1) The present inventors also evaluated the cytotoxicity of Gd(III) complexes using the MTT assay, another method measuring cell viability, on the Jurkat and MCF-7 cell lines (Figure 9 and 11). […] In order to estimate the concentration of Gd (III) complexes able to reduce cell viability by 50% (IC50), the present inventors plotted a linear regression line for each used cell line (Figure 10). […] It appears thus that Jurkat cells are slightly more susceptible to Gd (III) complexes than MCF-7 cells.
Two different cell lines were used to assess Gd(III) cytotoxicity: Jurkat, and MCF-7. Jurkat cells were seeded on two 96-well culture plates (BD Falcon) (50 µl in each well with a concentration of 4x10^5 cells/mL). […] Each test was repeated eight times. As a negative control, cells were treated with ethanol (96%) (the same amount of ethanol present in the cells treated with a highest concentration of Gd(III) complex). Incubation was carried out for 3 days. In this experiment the toxicity of Gd(III) complex was evaluated by the 3-(4, 5-dimethylthiazol-2-yl)-2, 5-diphenyl tetrazolium bromide (MTT) assay. At the end of each incubation time 10 µl of 5 mg/mL MTT solution (AppliChem) were added to each well followed by further incubation for 4h. Then, 100 µl of 0.04 N HCL in isopropanol (BDH Prolabo) were added to the wells and formazan crystals were allowed to solubilize for 1 hour at room temperature. The formazan concentration was quantified using a spectrophotometer (Tecan Infinite M200 monochromator-based multi-function microplate reader) by measuring the absorbance at 570 nm and 630 nm. The final optical density (OD) obtained from formazan formation was calculated with the following formula: OD=L(570nm)-L(630nm). The toxicity was assessed by calculating the % of cell survival in relation to the control untreated group. The procedure described above was repeated for the MCF-7 cell line, after being seeded at 5 × 10^3 cells per each well and allowed to attach for 24h.

[3] = tested on: Jurkat cell line; assay: Cell count with Trypan Blue, cytotoxicity of Gd(III) complex; format: cell-based, human; details: 3 days
Description: The MCF-7, MDA-MB-468, HeLa, 293T; ARPE19; D407 and S17 adherent cell lines were maintained in DMEM medium (LONZA) supplemented with 10% fetal bovine serum (FBS) (PAA), glutamine (200 mM), penicillin (10000 units/mL) and streptomycin (10000 µg/mL) from LONZA. All cell culture incubations were performed at 37°C under humidified atmosphere of 5% CO2. The Jurkat and DND41 suspension cell lines were maintained in RPMI 1640 medium (LONZA) supplemented as above. Cells were thawed at 37°C and pipetted into 10 mL of prewarmed medium. The cells were centrifuged at 300 g for 5 minutes to remove dimethylsulfoxide (DMSO) (Merck). Then, the supernatant was discarded and the pellet resuspended in 2 mL of fresh medium. The cells were placed into T25 flasks (Nunc) and 8 mL of medium was added for a final volume of 10 mL. The medium was changed every 2 days. […] The hemocytometer Neubauer chamber (Hausser Scientific) was filled with the cell suspension and uncolored viable cells were counted on an inverted light microscope (Leica DM IL). The cells were counted in four 1 mm^2 squares. The equation to calculate the cell number per cubic millimeter is the following: Number of cells counted per square millimeter × dilution used × 10. […]

[4] = tested on: Jurkat human leukemia cell line; assay: MTT assay, cytotoxicity of free and micelle-encapsulated Gd(III) complex on Jurkat; format: cell-based; details: 3 days; for cytotoxicity: 50 µM
Source text: as §1
To compare the cytotoxicity of free and micelle-encapsulated Gd(III) complexes and to verify if the time of dialysis influences polymeric micelle cytotoxicity, the present inventors performed again the MTT assay on Jurkat cells. The cells were treated with incremental concentrations of the free and micelle-encapsulated Gd(III) complexes.
Two different cell lines were used to assess Gd(III) cytotoxicity: Jurkat, and MCF-7. Jurkat cells were seeded on two 96-well culture plates (BD Falcon) (50 µl in each well with a concentration of 4x10^5 cells/mL). Different concentrations (5 µM, 10 µM, 15 µM and 20 µM) of Gd(III) complex solution, diluted in 50 µl of RPMI-1640, were used. Each test was repeated eight times. As a negative control, cells were treated with ethanol (96%) (the same amount of ethanol present in the cells treated with a highest concentration of Gd(III) complex). Incubation was carried out for 3 days. In this experiment the toxicity of Gd(III) complex was evaluated by the 3-(4, 5-dimethylthiazol-2-yl)-2, 5-diphenyl tetrazolium bromide (MTT) assay. At the end of each incubation time 10 µl of 5 mg/mL MTT solution (AppliChem) were added to each well followed by further incubation for 4h. Then, 100 µl of 0.04 N HCL in isopropanol (BDH Prolabo) were added to the wells and formazan crystals were allowed to solubilize for 1 hour at room temperature. The formazan concentration was quantified using a spectrophotometer (Tecan Infinite M200 monochromator-based multi-function microplate reader) by measuring the absorbance at 570 nm and 630 nm. The final optical density (OD) obtained from formazan formation was calculated with the following formula: OD=L(570nm)-L(630nm). The toxicity was assessed by calculating the % of cell survival in relation to the control untreated group. […]
To assess Gd(III) complex-loaded polymeric micelle cytoxicity and to compare it with the toxicity from free Gd(III) complex, Jurkat cells were seeded on a 96-well culture plate (50 µl in each well with a concentration of 4x10^5 cells/mL). […] The cytotoxicity of Gd(III) complex and Gd(III) complex-loaded polymeric micelles was evaluated by the MTT assay following the procedure mentioned on 8.2.

| Compound | solubility in aqueous media [1] | toxicity (number of viable cells) ([2]; 10 µM, MTT, 3 days, MCF-7) | toxicity ([2]; 50 µM, 3 days, MCF-7 cells as printed) | IC50 ([2]; MCF-7, 3 days, MTT, from linear regression line, read-out: IC50 (concentration able to reduce cell viability by 50%)) | toxicity by cell count ([3]; 10 µM) | toxicity by cell count ([3]; 50 µM) | toxicity (number of viable cells) ([4]; 10 µM) | cytotoxicity [4] | cytotoxicity ([4]; listed as free Gd(III) complexes) | IC50 ([4]; from linear regression line, read-out: IC50 (concentration able to reduce cell viability by 50%)) |
| --- | --- | --- | --- | --- | --- | --- | --- | --- | --- | --- |
| Cc1ccc2ccc3cccc4ccc1c2c34 [1-methylpyrene] | ca. 10^-7 M |  |  |  |  |  |  |  |  |  |
| tetraaquodichloro(4,4'-ditBu-2,2'-bipyridine) gadolinium(III) chloride [Gd(III) complexes] |  | toxic | overall cell death | 12.8 µM | less toxic | very toxic | toxic | kill all cells | killed almost all cells | 10.2 µM |
